Values after ≈ are worked out from the molar mass of the structure shown.
Key:
[1] = tested on: Sphaerotheca fuliginea; test: Foliar protection for cucumber powdery mildew control; assay type: in vivo; settings: foliar spray on Cucumis sativus cv. Straight Eight, inoculated 24 hours after treatment, evaluated 7 days later
Method in brief: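 Cucumber plants (cv. Straight Eight, 10 days old) sprayed to wetness on both leaf surfaces, then inoculated 24 h later by shaking sporulating stock plants over them. Held at 23–27 °C, 16 h light, 60% RH. Mildew colonization scored 7 days after inoculation, at compound concentrations of 10 ppm or lower.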

[2] = tested on: Fusarium moniliforme (Fm); test: In vitro pathogen growth inhibition assay, Fm; assay type: cell-based; settings: Fusarium verticillioides; ≥90% growth inhibition; 48 hours; vs 2% DMSO control; read-out: Compound Concentration (ppm) sufficient for ≥90% inhibition of Fm
Method in brief: (§1)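 Spores in 17% V8 liquid medium, or 1.5 mm Rs mycelial plugs in ¼ PDB, incubated with compound; final concentration checked by OD600 for precipitation. OD readings at 24 and 48 h, blank-subtracted, plus visual ratings; value is concentration giving ≥90% growth inhibition.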

[3] = tested on: Mycosphaerella graminicola (synthetic Septoria tritici); test: Foliar protection test for wheat septoria leaf blotch control; assay type: in vivo; settings: foliar spray on Triticum aestivum cv. WinterHawk, inoculated 1 hour after treatment, evaluated 16 days later
[4] = tested on: Phytophthora capsici (Pc); test: In vitro pathogen growth inhibition assay, Pc; assay type: cell-based; settings: 48 h, ≥90% growth inhibition, 48 hours, vs 2% DMSO control, read-out: Compound Concentration (ppm) sufficient for ≥90% inhibition of Pc
Method in brief: (§2)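 Value reported is the compound concentration reaching ≥90% growth inhibition, from OD readings at 24 and 48 h after blank subtraction, confirmed visually. Inoculum was spores diluted in 17% V8 medium, except Rs, using 1.5 mm mycelial plugs in ¼ PDB; actual compound concentration corrected via OD600.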

[5] = tested on: Rhizoctonia solani (Rs); test: In vitro pathogen growth inhibition assay, Rs (mycelial plugs); assay type: cell-based; settings: Rhizoctonia solani, 48 h, ≥90% growth inhibition; mycelial plugs; 48 hours; vs 2% DMSO control; read-out: Compound Concentration (ppm) sufficient for ≥90% inhibition of Rs
Method in brief: as §2

[6] = tested on: Fusarium graminearum; assay type: in vivo; settings: spray on flowering Triticum aestivum cv. Samson, inoculated 24 hours after treatment, evaluated 14 days later
[7] = tested on: Collectotrichum graminicola (Cg); test: In vitro pathogen growth inhibition assay, Cg; assay type: cell-based; settings: 48 h, ≥90% growth inhibition; 48 hours; vs 2% DMSO control; read-out: Compound Concentration (ppm) sufficient for ≥90% inhibition of Cg
Method in brief: as §1

[8] = tested on: Blumeria graminis f. sp. hordei; test: Foliar protection test for barley powdery mildew control; assay type: in vivo; settings: foliar spray on Hordeum vulgare cv. Perry, inoculated 24 hours after treatment, evaluated 7 days later
Method in brief: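 Six-day-old barley (cv. Perry) sprayed to wetness on both leaf sides; 24 h later inoculated by shaking spores from infected stock plants. Kept at 20 to 22° C, 70% relative humidity; mildew colonization assessed 7 days later.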

[9] = tested on: Diplodia maydis (Dm); test: In vitro pathogen growth inhibition assay, Dm; assay type: cell-based; settings: Stenocarpella maydis, 48 h, ≥90% growth inhibition; 48 hours; vs 2% DMSO control; read-out: Compound Concentration (ppm) sufficient for ≥90% inhibition of Dm
Method in brief: as §2

[10] = tested on: Fusarium virguliforme (Fv); test: In vitro pathogen growth inhibition assay, Fv; assay type: cell-based; settings: ≥90% growth inhibition, 48 hours, vs 2% DMSO control, read-out: Compound Concentration (ppm) sufficient for ≥90% inhibition of Fv
Method in brief: as §2

[11] = tested on: Septoria tritici (St); test: In vitro pathogen growth inhibition assay, St; assay type: cell-based; settings: Zymoseptoria tritici, 48 h, ≥90% growth inhibition; 48 hours; vs 2% DMSO control; read-out: Compound Concentration (ppm) sufficient for ≥90% inhibition of St
Method in brief: as §1

[12] = tested on: Botrtyis cinerea (Bc); test: In vitro pathogen growth inhibition assay, Bc; assay type: cell-based; settings: 48 h, ≥90% growth inhibition; 48 hours; vs 2% DMSO control; read-out: Compound Concentration (ppm) sufficient for ≥90% inhibition of Bc
Method in brief: as §1

[13] = tested on: Puccinia triticina; test: Foliar protection test for wheat leaf rust control; assay type: in vivo; settings: foliar application to wheat (Triticum aestivum cv. Winterhawk), evaluated 10 days later
[14] = tested on: Phakopsora pachyrhizi; test: Foliar protection test for Asian soybean rust control; assay type: in vivo; settings: foliar application to soybean (Glycine max AG4832), percent disease area evaluated 14 days later

SMILES | Cucumber Powdery Mildew Control at a compound concentration of 10 ppm or lower [1] | IC90 [2] | Septoria Leaf Blotch Control at a compound concentration of 25 ppm or lower [3] | IC90 [4] | IC90 [5] | Wheat Fusarium Head Blight Control at a compound concentration of 25 ppm or lower [6] | IC90 [7] | Barley Powdery Mildew Control at a compound concentration of 10 ppm or lower [8] | IC90 [9] | IC90 [10] | IC90 [11] | IC90 [12] | Wheat Leaf Rust Control at a compound concentration of 10 ppm or lower [13] | Asian Soybean Rust Control at a compound concentration of 25 ppm or lower [14]
COc1ccc(F)cc1[C@H](Cn1c(=O)n(C(C)(C)C(=O)NC(C)C)c(=O)c2c(C)c(-n3nccn3)sc21)OCC#N [Compound I-210, (R)-2-(1-(2-(cyanomethoxy)-2-(5-fluoro-2-methoxyphenyl)ethyl)-5-methyl-2,4-dioxo-6-(2H-1,2,3-triazol-2-yl)-1,4-dihydrothieno[2,3-d]pyrimidin-3 (2H)-yl)-N-isopropyl-2-methylpropanamide] | AA (≥85% control of cucumber powdery mildew) | 2 µg/mL (≈ 3.43 µM) | AA (≥85% control of wheat septoria leaf blotch) | > 50 µg/mL | 0.08 µg/mL (≈ 0.137 µM) | C (from 25 to 49% control of wheat fusarium head blight) | ≥ 0.4 µg/mL | AA (≥85% control of barley powdery mildew) | 0.4 µg/mL (≈ 0.685 µM) | 0.4 µg/mL (≈ 0.685 µM) | > 50 µg/mL | 0.4 µg/mL (≈ 0.685 µM) | A (from 70% to 84% control of wheat leaf rust) | AA (≥85% control of Asian soybean rust)
COc1ccc(F)cc1[C@H](Cn1c(=O)n(C(C)(C)C(=O)NC(C)C)c(=O)c2c(C)c(-n3nccn3)sc21)OC[C@@H](C)C#N [Compound I-211, 2-(1-((R)-2-((S)-2-cyanopropoxy)-2-(5-fluoro-2-methoxyphenyl)ethyl)-5-methyl-2,4-dioxo-6-(2H-1,2,3-triazol-2-yl)-1,4-dihydrothieno[2,3-d]pyrimidin-3 (2H)-yl)-N-isopropyl-2-methylpropanamide] | AA (≥85% control of cucumber powdery mildew) | 0.08 µg/mL (≈ 0.131 µM) | AA (≥85% control of wheat septoria leaf blotch) | > 50 µg/mL | 0.08 µg/mL (≈ 0.131 µM) | C (from 25 to 49% control of wheat fusarium head blight) | 0.08 µg/mL (≈ 0.131 µM) | AA (≥85% control of barley powdery mildew) | 0.08 µg/mL (≈ 0.131 µM) | 0.4 µg/mL (≈ 0.654 µM) | > 50 µg/mL | 0.4 µg/mL (≈ 0.654 µM) | A (from 70% to 84% control of wheat leaf rust) | AA (≥85% control of Asian soybean rust)
COc1ccc(F)cc1[C@H](Cn1c(=O)n(C(C)(C)C(=O)NC(C)C)c(=O)c2c(C)c(-n3nccn3)sc21)OC[C@H](C)C#N [Compound I-212, 2-(1-((R)-2-((R)-2-cyanopropoxy)-2-(5-fluoro-2-methoxyphenyl)ethyl)-5-methyl-2,4-dioxo-6-(2H-1,2,3-triazol-2-yl)-1,4-dihydrothieno[2,3-d]pyrimidin-3 (2H)-yl)-N-isopropyl-2-methylpropanamide] | AA (≥85% control of cucumber powdery mildew) | 0.08 µg/mL (≈ 0.131 µM) | AA (≥85% control of wheat septoria leaf blotch) | > 50 µg/mL | 0.08 µg/mL (≈ 0.131 µM) | B (from 50 to 69% control of wheat fusarium head blight) | 0.08 µg/mL (≈ 0.131 µM) | AA (≥85% control of barley powdery mildew) | ≥ 0.08 µg/mL | 0.4 µg/mL (≈ 0.654 µM) | > 50 µg/mL | 0.4 µg/mL (≈ 0.654 µM) | AA (≥85% control of wheat leaf rust) | AA (≥85% control of Asian soybean rust)
COc1ccc(F)cc1[C@H](Cn1c(=O)n(C(C)(C)C(=O)NC(C)C)c(=O)c2c(C)c(-n3nccn3)sc21)OCC(C)(C)C#N [Compound I-213, (R)-2-(1-(2-(2-cyano-2-methylpropoxy)-2-(5-fluoro-2-methoxyphenyl)ethyl)-5-methyl-2,4-dioxo-6-(2H-1,2,3-triazol-2-yl)-1,4-dihydrothieno[2,3-d]pyrimidin-3 (2H)-yl)-N-isopropyl-2-methylpropanamide] | AA (≥85% control of cucumber powdery mildew) | 0.08 µg/mL (≈ 0.128 µM) | AA (≥85% control of wheat septoria leaf blotch) | > 50 µg/mL | 0.08 µg/mL (≈ 0.128 µM) | B (from 50 to 69% control of wheat fusarium head blight) | 0.4 µg/mL (≈ 0.639 µM) | A (from 70% to 84% control of barley powdery mildew) | ≥ 0.08 µg/mL | 0.4 µg/mL (≈ 0.639 µM) | > 50 µg/mL | 0.4 µg/mL (≈ 0.639 µM) | B (from 50 to 69% control of wheat leaf rust) | B (from 50 to 69% control of Asian soybean rust)
CCOC(=O)c1sc2c(c1C)c(=O)n([C@H](C)C(=O)N(C)C(C)C)c(=O)n2C[C@H](OCCC#N)c1cc(F)ccc1OC [Compound I-229, (R)-ethyl-1-(2-(2-cyanoethoxy)-2-(5-fluoro-2-methoxyphenyl)ethyl)-3-((R)-1-(isopropyl(methyl)amino)-1-oxopropan-2-yl)-5-methyl-2,4-dioxo-1,2,3,4-tetrahydrothieno[2,3-d]pyrimidine-6-carboxylate] | AA (≥85% control of cucumber powdery mildew) | 0.08 µg/mL (≈ 0.133 µM) | D (<25% control of wheat septoria leaf blotch) | > 50 µg/mL | 2 µg/mL (≈ 3.32 µM) | C (from 25 to 49% control of wheat fusarium head blight) | 2 µg/mL (≈ 3.32 µM) | AA (≥85% control of barley powdery mildew) | 2 µg/mL (≈ 3.32 µM) | 0.4 µg/mL (≈ 0.664 µM) | > 50 µg/mL | 2 µg/mL (≈ 3.32 µM) | B (from 50 to 69% control of wheat leaf rust) | C (from 25 to 49% control of Asian soybean rust)

Reference: patent US10941157B2, “Pesticidal compositions and uses thereof” (Gilead Apollo, LLC, priority 2015, dated 2021)
